Where two headings read alike, the source gives them in different places.
Molecular target: DCN1 (Homo sapiens (Human), UniProt Q96GG9)
Test: Competitive FP binding assay
Method: Competitive FP Binding Assay
The Fluorescence Polarization (FP) competitive binding assays were performed to accurately determine the binding affinities of our DCN1 inhibitors. […] Serial dilutions of proteins were mixed with 46 to a final volume of 200 μl in the assay buffer (100 mM phosphate buffer, pH=6.5, with 0.02% Tween-20 and 2% DMSO). Final probe concentration was 5 nM for both assays. Plates were incubated at room temperature for 30 minutes with gentle shaking to assure equilibrium.
Pure proteins were derived from the same expression and purification protocols. Plasmids were transformed into Rosetta2 cells, the cells were grown in Terrific Broth at 37° C. to an O.D.600>1.0 and induced with 0.4 mM Isopropyl (3-D-1-thiogalactopyranoside overnight at 20° C. The pelleted cells were resuspended in lysis buffer containing 25 mM Tris-HCl, pH 7.5, 200 mM NaCl and protease inhibitors, sonicated and centrifuged at 34,000×g for 45 minutes to remove debris. Cleared lysate was incubated with Ni-NTA resin (Qiagen) prewashed with lysis buffer, for 1 hr at 4° C. The matrix was loaded into a column then washed with 25 mM Tris-HCl, pH 7.5, 200 mM NaCl and 10 mM imidazole. Protein was eluted with 25 mM Tris-HCl, pH 7.5, 200 mM NaCl and 300 mM imidazole, concentrated and applied to a Superdex 75 (GE Healthcare) column pre-equilibrated with 25 mM Tris pH 7.5, 200 mM NaCl and 1 mM DTT. For DCN2-5, the N-terminal His6 tag was removed prior to gel filtration. Tag removal was achieved through incubation with TEV protease during overnight dialysis against 25 mM Tris pH 7.5, 200 mM NaCl and 1 mM DTT and a second Ni-NTA column. DCN2-5 proteins were stored at −80° C. in 1 mg/mL fractions containing 5% glycerol. The uncleaved DCN1 protein was stored at −80° C. without glycerol.

[1] = read-out: Binding affinity to DCN1 (IC50 (nM))
[2] = bounds given in μM, read-out: Binding affinity to DCN1 (IC50)

Chain of DCN1 (Q96GG9 58-259): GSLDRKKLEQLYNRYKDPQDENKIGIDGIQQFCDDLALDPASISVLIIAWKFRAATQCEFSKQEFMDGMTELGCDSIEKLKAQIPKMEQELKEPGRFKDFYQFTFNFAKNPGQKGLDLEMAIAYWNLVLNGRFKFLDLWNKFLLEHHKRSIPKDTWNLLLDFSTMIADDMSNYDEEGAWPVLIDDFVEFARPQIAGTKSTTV

| SMILES | IC50 [1] [nM] | IC50 [2] [nM] |
| --- | --- | --- |
| CCC(=O)N[C@@H](Cc1nc2ccccc2s1)C(=O)N[C@H](C(=O)N[C@@H](CCCCN)C(=O)NC(c1ccccc1)c1ccccc1)C1CCCC1 [Example 25] | 397 |  |
| CCC(=O)N[C@@H](Cc1nc2c(F)cccc2s1)C(=O)N[C@H](C(=O)N[C@@H](CCCCN)C(=O)NC(c1ccccc1)c1ccccc1)C1CCCC1 [Example 26] |  | > 3000 |
| CCC(=O)N[C@@H](Cc1nc2cc(F)ccc2s1)C(=O)N[C@H](C(=O)N[C@@H](CCCCN)C(=O)NC(c1ccccc1)c1ccccc1)C1CCCC1 [Example 27] | 1200 |  |
| CCC(=O)N[C@@H](Cc1nc2ccc(F)cc2s1)C(=O)N[C@H](C(=O)N[C@@H](CCCCN)C(=O)NC(c1ccccc1)c1ccccc1)C1CCCC1 [Example 28] | 413 |  |
| CCC(=O)N[C@@H](Cc1nc2cc(Cl)ccc2s1)C(=O)N[C@H](C(=O)N[C@@H](CCCCN)C(=O)NC(c1ccccc1)c1ccccc1)C1CCCC1 [Example 29] | 572 |  |
| CCC(=O)N[C@@H](Cc1nc2ccc(Cl)cc2s1)C(=O)N[C@H](C(=O)N[C@@H](CCCCN)C(=O)NC(c1ccccc1)c1ccccc1)C1CCCC1 [Example 30] | 193 |  |
| CCC(=O)N[C@@H](Cc1nc2cccc(Cl)c2s1)C(=O)N[C@H](C(=O)N[C@@H](CCCCN)C(=O)NC(c1ccccc1)c1ccccc1)C1CCCC1 [Example 31] | 137 |  |
| CCC(=O)N[C@@H](Cc1nc2ccc(Cl)cc2s1)C(=O)N[C@H](C(=O)N[C@@H](CCCCN)C(=O)N[C@@H]1CCCc2ccccc21)C1CCCC1 [Example 32] | 157 |  |
| CCC(=O)N[C@@H](Cc1nc2ccc(Cl)cc2s1)C(=O)N[C@H](C(=O)N[C@@H](CCCCN)C(=O)N[C@@H]1CCOc2ccccc21)C1CCCC1 [Example 33] | 103 |  |
| CCC(=O)N[C@@H](Cc1nc2ccc(Cl)cc2s1)C(=O)N[C@H](C(=O)N[C@@H](CCCCN(C)C)C(=O)N[C@@H]1CCOc2ccccc21)C1CCCC1 [Example 34] | 17.9 |  |
| CCC(=O)N[C@@H](Cc1nc2ccc(Cl)cc2s1)C(=O)N[C@H](C(=O)N[C@@H](CCCCN)C(=O)N[C@@H]1CCOc2ccccc21)C1CCNCC1 [Example 35] |  | > 5000 |
| CCC(=O)N[C@@H](Cc1nc2ccc(Cl)cc2s1)C(=O)N[C@H](C(=O)N[C@@H](CCCCN)C(=O)N[C@@H]1CCOc2ccccc21)C1CCOCC1 [Example 37] | 49 |  |
| CCC(=O)N[C@@H](Cc1nc2ccc(Cl)cc2s1)C(=O)N[C@H](C(=O)N[C@@H](CCCCN(C)C)C(=O)N[C@@H]1CCOc2ccccc21)C1CCOCC1 [Example 38] | 123 |  |
| CCC(=O)N[C@@H](Cc1nc2ccc(Cl)cc2s1)C(=O)N[C@H](C(=O)N[C@@H](CCCCN)C(=O)N[C@@H]1CNCc2ccccc21)C1CCCC1 [Example 39] | 173 |  |
| CCC(=O)N[C@@H](Cc1nc2ccc(Cl)cc2s1)C(=O)N[C@H](C(=O)N[C@@H](CCCCN(C)C)C(=O)N[C@@H]1CN(C)Cc2ccccc21)C1CCCC1 [Example 40] | 163 |  |
| CCC(=O)N[C@@H](Cc1nc2ccc(Cl)cc2s1)C(=O)N[C@H](C(=O)N[C@@H](CC1CCNCC1)C(=O)N[C@@H]1CCOc2ccccc21)C1CCOCC1 [Example 41] | 222 |  |
| CCC(=O)N[C@@H](Cc1nc2ccc(Cl)cc2s1)C(=O)N[C@H](C(=O)N[C@@H](CC1CCN(C)CC1)C(=O)N[C@@H]1CCOc2ccccc21)C1CCOCC1 [Example 42] | 299 |  |
| CCC(=O)N[C@@H](Cc1nc2ccc(Cl)cc2s1)C(=O)N[C@H](C(=O)N[C@@H](CCCCN)C(=O)N[C@@H]1CNCc2ccccc21)C1CCOCC1 [Example 43] | 84.3 |  |
| CCC(=O)N[C@H](Cc1nc2ccc(Cl)cc2s1)C(=O)N[C@H](C(=O)N[C@@H](CCCCN)C(=O)N[C@@H]1CNCc2ccccc21)C1CCOCC1 [Example 44] |  | > 1000 |
| CCC(=O)N[C@@H](Cc1nc2ccc(Cl)cc2s1)C(=O)N[C@@H](C[C@H]1CC[C@H](CN)CC1)C(=O)N[C@@H](CCCCN(C)C)C(=O)N[C@@H]1CCOc2ccccc21 [Example 45] | 116 |  |

| SMILES | IC50 [1] [nM] | IC50 [2] [nM] |
| --- | --- | --- |
| CC[C@H](C)[C@@H](CN)NC(=O)[C@H](Cc1nc2ccc(C(C)C)cc2s1)NC(C)=O [Example 46, (S)-2-acetamido-N-((2S,3S)-1-amino-3-methylpentan-2-yl)-3-(6-isopropylbenzo[d]thiazol-2-yl)propanamide] | 281 ± 29 |  |
| CCC(=O)N[C@@H](Cc1nc2ccc(C(C)C)cc2s1)C(=O)N[C@H](CN)[C@@H](C)CC [Example 47, (S)—N-((2S,3S)-1-amino-3-methylpentan-2-yl)-3-(6-isopropylbenzo[d]thiazol-2-yl)-2-propionamidopropanamide] | 95 ± 15.8 |  |
| CC[C@H](C)[C@@H](CN)NC(=O)[C@H](Cc1nc2ccc(C(C)C)cc2s1)NC=O [Example 48, (S)—N-((2S,3S)-1-amino-3-methylpentan-2-yl)-2-formamido-3-(6-isopropylbenzo[d]thiazol-2-yl)propanamide] |  | > 5000 |
| CC[C@H](C)[C@@H](CN)NC(=O)[C@@H](N)Cc1nc2ccc(C(C)C)cc2s1 [Example 49, (S)-2-amino-N-((2S,3S)-1-amino-3-methylpentan-2-yl)-3-(6-isopropylbenzo[d]thiazol-2-yl)propanamide] |  | > 10000 |
| CC[C@H](C)[C@@H](CN)NC(=O)[C@H](Cc1nc2ccc(C(C)C)cc2s1)NC(=O)C(C)C [Example 50, (S)—N-((2S,3S)-1-amino-3-methylpentan-2-yl)-2-isobutyramido-3-(6-isopropylbenzo[d]thiazol-2-yl)propanamide] | 255 ± 29 |  |
| CCCC(=O)N[C@@H](Cc1nc2ccc(C(C)C)cc2s1)C(=O)N[C@H](CN)[C@@H](C)CC [Example 51, N—((S)-1-(((2S,3 S)-1-amino-3-methylpentan-2-yl)amino)-3-(6-isopropylbenzo[d]thiazol-2-yl)-1-oxopropan-2-yl)butyramide] | 944 ± 176 |  |
| CC[C@H](C)[C@@H](CN)NC(=O)[C@H](Cc1nc2ccc(C(C)C)cc2s1)NC(=O)NC [Example 52, (S)—N-((2S,3S)-1-amino-3-methylpentan-2-yl)-3-(6-isopropylbenzo[d]thiazol-2-yl)-2-(3-methylureido)propanamide] | 558 ± 125 |  |
| CCC(=O)N[C@@H](Cc1nc2ccc(C(C)C)cc2s1)C(=O)NCCN [Example 53, (S)—N-(2-aminoethyl)-3-(6-isopropylbenzo[d]thiazol-2-yl)-2-propionamidopropanamide] |  | > 10000 |
| CCC(=O)N[C@@H](Cc1nc2ccc(C(C)C)cc2s1)C(=O)N[C@@H](C)CN [Example 54, (S)—N—((S)-1-aminopropan-2-yl)-3-(6-isopropylbenzo[d]thiazol-2-yl)-2-propionamidopropanamide] |  | > 10000 |
| CCC(=O)N[C@@H](Cc1nc2ccc(C(C)C)cc2s1)C(=O)N[C@H](CN)Cc1ccccc1 [Example 55, (S)—N—((S)-1-amino-3-phenylpropan-2-yl)-3-(6-isopropylbenzo[d]thiazol-2-yl)-2-propionamidopropanamide] | 179 |  |
| CCC(=O)N[C@@H](Cc1nc2ccc(C(C)C)cc2s1)C(=O)N[C@H](CN)C1CCCCC1 [Example 56, (S)—N—((S)-2-amino-1-cyclohexylethyl)-3-(6-isopropylbenzo[d]thiazol-2-yl)-2-propionamidopropanamide] | 79.6 |  |
| CCC(=O)N[C@@H](Cc1nc2ccc(C(C)C)cc2s1)C(=O)N[C@H](CNC(=O)CN1CCOCC1)C1CCCCC1 [Example 57, (S)—N—((S)-1-cyclohexyl-2-(2-morpholinoacetamido)ethyl)-3-(6-isopropylbenzo[d]thiazol-2-yl)-2-propionamidopropanamide] | 70.4 |  |
| CCC(=O)N[C@@H](Cc1nc2ccc(C(C)C)cc2s1)C(=O)N[C@H](CNC(=O)CCCN1CCOCC1)C1CCCCC1 [Example 59, N—((S)-2-cyclohexyl-2-((S)-3-(6-isopropylbenzo[d]thiazol-2-yl)-2-propionamidopropanamido)ethyl)-4-morpholinobutanamide] | 63.1 |  |
| CCC(=O)N[C@@H](Cc1nc2ccc(C(C)C)cc2s1)C(=O)N[C@H](CNC(=O)c1ccncc1)C1CCCCC1 [Example 61] | 128 |  |
| CCC(=O)N[C@@H](Cc1nc2ccc(C(C)C)cc2s1)C(=O)N[C@H](CNC(=O)C1CCNCC1)C1CCCCC1 [Example 62, N—((S)-2-cyclohexyl-2-((S)-3-(6-isopropylbenzo[d]thiazol-2-yl)-2-propionamidopropanamido)ethyl)piperidine-4-carboxamide] | 25.9 |  |
| CCC(=O)N[C@@H](Cc1nc2ccc(C(C)C)cc2s1)C(=O)N[C@H](CNC(=O)C1CCN(C2COC2)CC1)C1CCCCC1 [Example 63] | 67.3 |  |
| CCC(=O)N[C@@H](Cc1nc2ccc(C(C)C)cc2s1)C(=O)N[C@H](CNC(=O)C12CCN(CC1)CC2)C1CCCCC1 [Example 64] | 36 |  |
| CCC(=O)N[C@@H](Cc1nc2ccc(C(C)C)cc2s1)C(=O)N[C@H](CNC(=O)c1nnc[nH]1)C1CCCCC1 [Example 65] | 119 |  |
| CCC(=O)N[C@@H](Cc1nc2ccc(C(C)C)cc2s1)C(=O)N[C@H](CNC(=O)c1cn(C)cn1)C1CCCCC1 [Example 66] | 299 |  |
